For data set [1], the target named is T1, Protein cereblon/Bromodomain-containing protein 4 (Homo sapiens, UniProt O60885+Q96SW2). As to the kind of experiment: Photocaged-PROTAC activity at CRBN/BRD4 in human Ramos cells assessed as Brd4 protein degradation upto 3 uM pre-incubated for 2 hrs under dark followed by 365 nm UV light irradiation for 3 mins and measured after 12 hrs by Western blot analysis. It is filed as cell-based. The following applies: time 14.0 hrs. (Immunoblotting shows a protein as a band on a membrane.)

The test system of data set [2] is NAMALVA. As to the kind of experiment: Antiproliferative activity against human NAMALVA cells assessed as reduction in cell viability upto 10 uM measured after 72 hrs under dark condition by CellTiter-Glo luminescent assay. It is filed as functional, cell-based. A general note: ATP-based viability assays read luminescence as a measure of living cells.
Data set [3] has as its system NAMALVA. As to the kind of experiment: Antiproliferative activity against human NAMALVA cells assessed as reduction in cell viability pre-incubated for 2 hrs under dark followed by visible light irradiation for 3 mins at 405 nm and measured after 72 hrs under dark condition by CellTiter-Glo luminescent assay. The settings on record: light or radiation study. It is filed as functional, cell-based.

The target of data set [4] is T1, Protein cereblon/Bromodomain-containing protein 4. Description: Photocaged-PROTAC activity at CRBN/BRD4 in human Ramos cells assessed as […] Brd4 protein degradation pre-incubated for 2 hrs followed by visible light irradiation at 405 nM for 3 mins and measured after 12 hrs by Western blot analysis. It is filed as cell-based.
Data set [5] has the same target. Description: Photocaged-PROTAC activity at CRBN/BRD4 in human Ramos cells assessed as reduction in Brd4 protein level at 0.03 to 10 uM pre-incubated for 2 hrs under dark followed by UV light irradiation at 3 mW/cm^2 for 3 mins and measured after 12 hrs by Western blot analysis. It is filed as cell-based. The settings on record: dose 0.03-10 µM, time 14.0 hrs.
Data set [6] shares this target. As to the kind of experiment: Photocaged-PROTAC activity at CRBN/BRD4 in human Ramos cells assessed as […] Brd4 protein degradation pre-incubated for 2 hrs followed by UV light irradiation at 365 nM for 3 mins and measured after 12 hrs by Western blot analysis. It is filed as cell-based.
Data set [7] shares this target. Description: Photocaged-PROTAC activity at CRBN/BRD4 in human Ramos cells assessed as […] Brd4 protein degradation under dark condition pre-incubated for 12 hrs by Western blot analysis. It is filed as cell-based.
Data set [8] has the same target. As to the kind of experiment: Photocaged-PROTAC activity at CRBN/BRD4 in human Ramos cells assessed as reduction in Brd4 protein level at 0.03 to 10 uM incubated for 12 hrs under dark by Western blot analysis. It is filed as cell-based. The settings on record: dose 0.03-10 µM.
For data set [9] the target is unchanged. As to the kind of experiment: Photocaged-PROTAC activity at CRBN/BRD4 in human Ramos cells assessed as Brd4 protein degradation at 0.03 to 10 uM incubated for 12 hrs under dark by Western blot analysis. It is filed as cell-based. The following applies: dose 0.03-10 µM.
The target is the same in data set [10]. As to the kind of experiment: Photocaged-PROTAC activity at CRBN/BRD4 in human Ramos cells assessed as Brd4 protein degradation at 0.03 to 10 uM pre-incubated for 2 hrs under dark followed by 365 nm UV light irradiation for 3 mins and measured after 12 hrs by Western blot analysis. It is filed as cell-based. The settings on record: dose 0.03-10 µM.
The nature of data set [11]: Photoactivation of the Photocaged-PROTAC assessed as uncaging rate measuring dBET1 release under visible light measured at 1 min by HPLC analysis.
Data set [12] concerns NAMALVA. As to the kind of experiment: Antiproliferative activity against human NAMALVA cells assessed as reduction in cell viability upto 10 uM measured after 72 hrs by CellTiter-Glo luminescent assay. It is filed as functional, cell-based.
The target of data set [13] is T1, Protein cereblon/Bromodomain-containing protein 4. Description: Photocaged-PROTAC activity at CRBN/BRD4 in human Ramos cells assessed as reduction in Brd4 protein level at 0.03 to 10 uM pre-incubated for 2 hrs followed by visible light irradiation at 405 nm for 3 mins and measured after 12 hrs by Western blot analysis. It is filed as cell-based. The following applies: dose 0.03-10 µM, time 14.0 hrs.

The target is the same in data set [14]. Description: Photocaged-PROTAC activity at CRBN/BRD4 in human Ramos cells assessed as Brd4 protein degradation at 10000 nM incubated for 12 hrs under dark by Western blot analysis. It is filed as cell-based.
Data set [15] shares this target. As to the kind of experiment: Photocaged-PROTAC activity at CRBN/BRD4 in human Ramos cells assessed as Brd4 protein degradation at 30 nM pre-incubated for 2 hrs under dark followed by 365 nm UV light irradiation for 3 mins and measured after 12 hrs by Western blot analysis. The following applies: time 14.0 hrs. It is filed as cell-based.

pIC50: −log10 of the molar value. Active and inactive are the calls of the source. The rule behind the calls is not given here. Bounds are passed on as bounds.

As usually defined, the pIC50 is the IC50 on a negative log10 scale, so that one unit is a factor of ten. A word on the DC50: it is the midpoint of the concentration-degradation curve.

T1 sequence (Q96SW2 whole entry, looked up, other chains not shown): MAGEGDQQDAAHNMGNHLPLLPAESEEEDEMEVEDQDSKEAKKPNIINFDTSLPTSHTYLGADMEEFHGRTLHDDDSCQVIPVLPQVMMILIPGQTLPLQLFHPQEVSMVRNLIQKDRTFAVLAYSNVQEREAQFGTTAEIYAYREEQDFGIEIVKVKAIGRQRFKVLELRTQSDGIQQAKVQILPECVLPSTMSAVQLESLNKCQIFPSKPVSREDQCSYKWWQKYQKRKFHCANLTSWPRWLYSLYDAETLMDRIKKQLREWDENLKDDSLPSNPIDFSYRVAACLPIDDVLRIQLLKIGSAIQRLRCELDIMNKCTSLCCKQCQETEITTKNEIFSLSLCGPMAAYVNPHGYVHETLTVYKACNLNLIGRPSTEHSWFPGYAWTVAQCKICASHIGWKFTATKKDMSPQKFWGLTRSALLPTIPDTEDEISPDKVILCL

Consider `Cc1ncsc1-c1ccc(CN(Cc2cc3c(cc2[N+](=O)[O-])oc2ccccc23)C(=O)[C@@H]2C[C@@H](O)CN2C(=O)[C@@H](NC(=O)COCCOCCOCCOC(=O)C[C@@H]2N=C(c3ccc(Cl)cc3)c3c(sc(C)c3C)-n3c(C)nnc32)C(C)(C)C)cc1`, for which, in data set [1], the outcome was Active. The pIC50 is 5.93 in the data set on NAMALVA [2] and 6.85 in the data set on NAMALVA [3]. In data set [4], the DC50 is less than 30 nM.

Turning to `COc1cc(CON2C(=O)CCC(N3C(=O)c4cccc(OCC(=O)NCCCCNC(=O)C[C@@H]5N=C(c6ccc(Cl)cc6)c6c(sc(C)c6C)-n6c(C)nnc65)c4C3=O)C2=O)c([N+](=O)[O-])cc1OC` (some centres not stated), the outcome in [5] was Active. Further, the values for the DC50 in data set [6] and in data set [7] were 148 nM and greater than 10000 nM, respectively. In addition, in data set [8], the outcome was inactive.

With `COc1cc(CN2C(=O)CCC(N3C(=O)c4cccc(OCC(=O)NCCCCNC(=O)C[C@@H]5N=C(c6ccc(Cl)cc6)c6c(sc(C)c6C)-n6c(C)nnc65)c4C3=O)C2=O)c([N+](=O)[O-])cc1OC` (some centres not stated), the half-maximal degradation concentration (DC50) is 2310 nM in [6] and greater than 10000 nM in data set [7]. The outcome in data set [8] was inactive.

For the compound `COc1cc(CN(C(=O)COCCOCCOCCOC(=O)C[C@@H]2N=C(c3ccc(Cl)cc3)c3c(sc(C)c3C)-n3c(C)nnc32)[C@H](C(=O)N2C[C@H](O)C[C@H]2C(=O)NCc2ccc(-c3scnc3C)cc2)C(C)(C)C)c([N+](=O)[O-])cc1OC`, the outcome in data set [9] and in [10] was inactive. The DC50 in data set [6] and in data set [7] was greater than 10000 nM each time.

For the compound `COc1cc(CN(CCCCNC(=O)C[C@@H]2N=C(c3ccc(Cl)cc3)c3c(sc(C)c3C)-n3c(C)nnc32)C(=O)COc2cccc3c2C(=O)N(C2CCC(=O)NC2=O)C3=O)c([N+](=O)[O-])cc1OC` (some centres not stated), the DC50 in data set [6] is 55 nM; in data set [7], 59 nM. Besides, the outcome in data set [8] was Active.

Consider `COc1cc(COC(=O)O[C@@H]2C[C@@H](C(=O)NCc3ccc(-c4scnc4C)cc3)N(C(=O)[C@@H](NC(=O)COCCOCCOCCOC(=O)C[C@@H]3N=C(c4ccc(Cl)cc4)c4c(sc(C)c4C)-n4c(C)nnc43)C(C)(C)C)C2)c([N+](=O)[O-])cc1OC`, for which the result in [11] was Active. Further, the DC50 in data set [6] and in data set [7] was less than 30 nM in each case. Further, the outcome in [10] was Active.

Turning to `Cc1sc2c(c1C)C(c1ccc(Cl)cc1)=N[C@@H](CC(=O)N(CCCCNC(=O)COc1cccc3c1C(=O)N(C1CCC(=O)NC1=O)C3=O)Cc1cc3oc4ccccc4c3cc1[N+](=O)[O-])c1nnc(C)n1-2` (some centres not stated), the result in the data set with NAMALVA [12] was inactive. For the same compound, the outcome in data set [11] was Active. Besides, the outcome in data set [13] was Active. The pIC50 is less than 5.00 in the data set on NAMALVA [2] and 6.54 in the data set with NAMALVA [3]. Besides, the DC50 in [4] worked out at 32 nM.

On to `Cc1sc2c(c1C)C(c1ccc(Cl)cc1)=N[C@@H](CC(=O)NCCCCNC(=O)COc1cccc3c1C(=O)N(C1CCC(=O)N(OCc4cc5oc6ccccc6c5cc4[N+](=O)[O-])C1=O)C3=O)c1nnc(C)n1-2` (some centres not stated), for which the result in data set [11] was Active. In addition, in data set [13], the outcome was Active. Moreover, the pIC50 in the data set with NAMALVA [2] was less than 5.63; in the data set on NAMALVA [3], 6.13. Besides, the DC50 in data set [4] came out at 108 nM.

As to `Cc1sc2c(c1C)C(c1ccc(Cl)cc1)=N[C@@H](CC(=O)N(CCCCNC(=O)COc1cccc3c1C(=O)N(C1CCC(=O)NC1=O)C3=O)Cc1cc3c(cc1[N+](=O)[O-])oc1cc(N(C)C)ccc13)c1nnc(C)n1-2` (some centres not stated), the outcome in the data set with NAMALVA [12] was inactive. The outcome in [11] was Active. In [13], the result was Active. For the same compound, the figures for the pIC50 in the data set on NAMALVA [2] and with NAMALVA [3] were less than 5.00 and 6.32, respectively. In addition, the DC50 in data set [4] was 62 nM.

Take `Cc1ncsc1-c1ccc(CNC(=O)[C@@H]2C[C@@H](O)CN2C(=O)[C@@H](NC(=O)COCCOCCOCCNC(=O)C[C@@H]2N=C(c3ccc(Cl)cc3)c3c(sc(C)c3C)-n3c(C)nnc32)C(C)(C)C)cc1`: the negative logarithm of the IC50 (pIC50) in the data set with NAMALVA [3] is 6.77.

Consider `Cc1sc2c(c1C)C(c1ccc(Cl)cc1)=N[C@@H](CC(=O)NCCCCNC(=O)COc1cccc3c1C(=O)N(C1CCC(=O)NC1=O)C3=O)c1nnc(C)n1-2` (some centres not stated), for which the pIC50 with NAMALVA [3] was 6.50.

Consider `CCNC(=O)c1sc2c(c1C)C(c1ccc(Cl)cc1)=N[C@@H](CC(=O)NCCCCNC(=O)COc1cccc3c1C(=O)N(C1CCC(=O)NC1=O)C3=O)c1nnc(C)n1-2` (some centres not stated), for which, in [5], the result was Active.

Regarding `Cc1sc2c(c1C)C(c1ccc(Cl)cc1)=N[C@@H](CC(=O)N(CCCCNC(=O)COc1cccc3c1C(=O)N(C1CCC(=O)NC1=O)C3=O)C(C)c1cc3c(cc1[N+](=O)[O-])oc1ccccc13)c1nnc(C)n1-2` (some centres not stated), the result in the data set on NAMALVA [12] was inactive. Further, the outcome in [11] was Active. In addition, the outcome in data set [13] was Active. Moreover, the pIC50 in the data set on NAMALVA [2] was less than 5.00; in the data set with NAMALVA [3], 6.54. Also, the DC50 in [4] stood at 65 nM.

For the compound `CCN(Cc1cc(OC)c(OC)cc1[N+](=O)[O-])C(=O)c1sc2c(c1C)C(c1ccc(Cl)cc1)=N[C@@H](CC(=O)NCCCCNC(=O)COc1cccc3c1C(=O)N(C1CCC(=O)NC1=O)C3=O)c1nnc(C)n1-2` (some centres not stated), in data set [5], the outcome was Active. Besides, the DC50 is 1980 nM in [6] and greater than 10000 nM in data set [7].

For the compound `COc1cc(CN(Cc2ccc(-c3scnc3C)cc2)C(=O)[C@@H]2C[C@@H](O)CN2C(=O)[C@@H](NC(=O)COCCOCCOCCOC(=O)C[C@@H]2N=C(c3ccc(Cl)cc3)c3c(sc(C)c3C)-n3c(C)nnc32)C(C)(C)C)c([N+](=O)[O-])cc1OC`, the result in data set [11] was Active. Also, the DC50 in data set [6] is less than 30 nM; in data set [7], greater than 10000 nM. In addition, the result in data set [10] and in data set [15] was Active. In data set [14], the outcome was inactive.
